Laboratory results: patent publication US9116112B2, “UV protective skin treatment compositions and screening methods” (JR Chem LLC, priority 2011, dated 2015)
“And” between values parts separate entries of the source, which are not always exact repeats. Identical values can stand only once.

Legend:
[1] = Briggs-Rauscher Oscillation Reaction Method (BROM) antioxidant capacity; assay type: biochemical; settings: for BROM: Table 2, common antioxidants present in body fluids and tissues; for calculated BROM value at product concentration: Arbutin at 0.2 wt. %, BHT at 0.1 wt. %; for BROM value of individual antioxidant: text b80, rounded values used for calculation
[2] = Table 2, Water or Lipid; cited from earlier work
Balb/c 3T3 cells = assay: 3T3 Neutral Red Uptake Phototoxicity Test (3T3 NRU PT); assay type: cell-based, murine; settings: positive control, dose dates 03/10/11, 03/15/11, 03/22/11
Excerpt: The 3T3 Neutral Red Phototoxicity Test (3T3 NRU PT) was used to assess toxicological performance. It is a relatively new assay that was adopted by regulatory agencies such as OECD and FDA as an accepted method for the assessment of phototoxic potential of test substances. It is an in-vitro toxicological assessment test used to determine cytotoxic and photo(cyto)toxicity effect of a test article to murine fibroblasts in the presence or absence of UVA light (99% UVA/1% UVB). The 3T3 Neutral Red Uptake Phototoxicity Assay (3T3 NRU PT) can be utilized to identify the phototoxic effect of a test substance induced by the combination of test substance and light and is based on the comparison of the cytotoxic effect of a test substance when tested after the exposure and in the absence of exposure to a non-cytotoxic dose of UVA/vis light. Cytotoxicity is expressed as a concentration dependent reduction of the uptake of the vital dye—Neutral Red. […]
For both the range finding screen and the definitive test, Balb/c 3T3 cells were seeded in the central 60 wells of duplicate 96-well microplates per test article and maintained in culture for 24 hours. […] After UV irradiation, the treatment medium was replaced with culture medium and after 24 hours, cell viability was determined by neutral red uptake for 3 hours. […]

In the case of CC(C)c1c(C(=O)Nc2ccccc2)c(-c2ccccc2)c(-c2ccc(F)cc2)n1CC[C@@H](O)C[C@@H](O)CC(=O)O [Atorvastatin (Lipitor), Atorvastatin], the “Result [s/μg] (BROM by Strength)” value ([1]; Table 3, solvent Ethanol) is reported as 8.41 s/µg.

For N[C@@H](CCC(=O)N[C@@H](CS)C(=O)NCC(=O)O)C(=O)O [Glutathione], the “BROM” value [1] is given as 0.000991 s/µg, the “Result [s/μg] (BROM by Strength)” value ([1]; Table 3, solvent Water) is given as 0.000991 s/µg and the Solubility [2] is given as “Water”.

For O=C[C@H](O)[C@@H](O)[C@H](O)[C@H](O)CO [D-Glucose], the “Result [s/μg] (BROM by Strength)” value ([1]; Table 3, solvent Water) was 0 s/µg.

For CC(=O)Oc1c(C)c(C)c2c(c1C)CCC(C)(CCC[C@H](C)CCC[C@H](C)CCCC(C)C)O2 (some centres unmarked) [Vitamin E Acetate], the “electron scavenging capacity (BROM)” value [1] was “do not show measurable electron scavenging capacity” and the “Result [s/μg] (BROM by Strength)” value ([1]; Table 3, solvent Ethanol) was 0 s/µg.

For Cc1c(C)c2c(c(C)c1O)CCC(C)(C(=O)O)O2 (centres unmarked) [Trolox], the “electron scavenging capacity (BROM)” value [1] was “do not show measurable electron scavenging capacity” and the “Result [s/μg] (BROM by Strength)” value ([1]; Table 3, solvent Ethanol) was 0.021 s/µg.

With COc1ccc([C@@H]2CC(=O)c3c(O)cc(O[C@@H]4O[C@H](CO[C@@H]5O[C@@H](C)[C@H](O)[C@@H](O)[C@H]5O)[C@@H](O)[C@H](O)[C@H]4O)cc3O2)cc1O [Hesperidin] the “Result [s/μg] (BROM by Strength)” value ([1]; Table 3, solvent Water) was 5.38 s/µg.

For CC(C)(C)c1cc(O)ccc1O [Tert-Butylhydroquinone], the “Result [s/μg] (BROM by Strength)” value ([1]; Table 3, solvent Ethanol) was 0.13 s/µg.

In the case of OC[C@H]1O[C@@H](Oc2ccc(O)cc2)[C@H](O)[C@@H](O)[C@@H]1O (racemic) [Arbutin Racemic mixture, Arbutin], the “Result [s/μg] (BROM by Strength)” value ([1]; Table 3, solvent 50% Ethanol) is reported as 47 s/µg and the “Result [s/μg] (BROM by Strength)” value ([1]; Table 3, solvent Water) is reported as 49.4 s/µg.

For COc1ccc(C(=O)c2ccccc2)c(O)c1 [Oxybenzone], the “Result [s/μg] (BROM by Strength)” value ([1]; Table 3, solvent Ethanol) was 0 s/µg.

For O=C1O[C@H]([C@@H](O)CO)C(O)=C1O[C@H]1O[C@H](CO)[C@@H](O)[C@H](O)[C@H]1O [Ascorbyl Glucoside], the “Result [s/μg] (BROM by Strength)” value ([1]; Table 3, solvent Water) was “No clear”.

With Oc1cccc(O)c1 [Resorcinol] the “Result [s/μg] (BROM by Strength)” value ([1]; Table 3, solvent Water) was 30.39 s/µg.

For COc1c(O)c(C)c(C/C=C(\C)CC/C=C(\C)CC/C=C(\C)CC/C=C(\C)CC/C=C(\C)CC/C=C(\C)CC/C=C(\C)CC/C=C(\C)CC/C=C(\C)CCC=C(C)C)c(O)c1OC [Ubiquinol (coenzyme Q10), Ubiquinol], the “BROM” value [1] is listed as 0 s/µg and the Solubility [2] is listed as “Lipid”.

For O=C1O[C@H]([C@@H](O)CO)C(O)=C1O [Ascorbic Acid, Ascorbic acid], the BROM value [1] was 0.00105 s/µg, the “electron scavenging capacity (BROM)” value [1] was “do not show measurable electron scavenging capacity” and the “BROM” value [1] was 0.00105 s/µg. The “Result [s/μg] (BROM by Strength)” value ([1]; Table 3, solvent Water) was 0.00105 s/µg.

In the case of Cc1c(C)c2c(c(C)c1O)CC[C@@](C)(CCC[C@H](C)CCC[C@H](C)CCCC(C)C)O2 [α-Tocopherol (vitamin E), α-Tocopherol], the BROM value [1] is given as 0 s/µg, the “BROM” value [1] is given as 0 s/µg and the Solubility [2] is given as “Lipid”.

For CN(C)CCCN1c2ccccc2Sc2ccc(Cl)cc21 [CPZ, Chloropromazine], the “EC50 +SSL” value (Balb/c 3T3 cells; +SSL) was 0.394 µg/mL and 0.725 µg/mL and 0.682 µg/mL and the “EC50 No SSL” value (Balb/c 3T3 cells; dark) was 19.592 µg/mL and 24.805 µg/mL and 26.457 µg/mL.

With Cc1cc(C(C)(C)C)c(O)c(C(C)(C)C)c1 [BHT, butylatedhydroxytoluene] the “calculated BROM value at product concentration” value [1] was 0.03, the “Result [s/μg] (BROM by Strength)” value ([1]; Table 3, solvent 50% Ethanol) was 34.53 s/µg and the “Result [s/μg] (BROM by Strength)” value ([1]; Table 3, solvent Ethanol) was 29.4 s/µg. The “BROM value of individual antioxidant” value [1] was 30 s/µg.

In the case of CCCCC(CC)COC(=O)C(C#N)=C(c1ccccc1)c1ccc(OC)cc1 (centres unmarked) [Solastay S1], the “Result [s/μg] (BROM by Strength)” value ([1]; Table 3, solvent Ethanol) is reported as 0 s/µg.

In the case of CC1=C(/C=C/C(C)=C/C=C/C(C)=C/C(=O)O)C(C)(C)CCC1 [Tretinoin], the “BROM” value [1] is reported as 0 s/µg and the “Result [s/μg] (BROM by Strength)” value ([1]; Table 3, solvent Ethanol) is reported as 0 s/µg.

For OC[C@H]1O[C@@H](Oc2ccc(O)cc2)[C@H](O)[C@@H](O)[C@@H]1O [Arbutin], the “calculated BROM value at product concentration” value [1] was 0.1 and the “BROM value of individual antioxidant” value [1] was 50 s/µg.

In the case of Carotenes, the Solubility [2] is listed as “Lipid”.

For O=c1[nH]c(=O)c2[nH]c(=O)[nH]c2[nH]1 [Uric Acid, Uric acid], the “BROM” value [1] is listed as 9.14 s/µg, the “Result [s/μg] (BROM by Strength)” value ([1]; Table 3, solvent Water) is listed as 9.14 s/µg and the Solubility [2] is listed as “Water”.

With OC[C@H]1O[C@@H](Oc2ccc(O)cc2)[C@H](O)[C@@H](O)[C@@H]1O [8 Arbutin] the “Result [s/μg] (BROM by Strength)” value ([1]; Table 3, solvent Water) was 40.53 s/µg.

With NC(=O)NC1NC(=O)NC1=O (centres unmarked) [Allantoin] the “Result [s/μg] (BROM by Strength)” value ([1]; Table 3, solvent Water) was 0 s/µg.

For Oc1ccc(O)cc1 [Hydroquinone], the “Result [s/μg] (BROM by Strength)” value ([1]; Table 3, solvent 50% Ethanol) was 1.1 s/µg and the “Result [s/μg] (BROM by Strength)” value ([1]; Table 3, solvent Water) was 1.31 s/µg.
